Measurements: publication PMC7180948, “New Insights into 4-Anilinoquinazolines as Inhibitors of Cardiac Troponin I–Interacting Kinase (TNNi3K)” (Molecules, 2020)

Experiments:
Experiment in all cases: biochemical
Design in all cases: KINOMEscan competition binding panel (Eurofins DiscoverX), single concentration, % inhibition
Settings in all cases: read-out: 7 at 1 µM % inhibition
[1] = biological target: T1, ABL1(Q252H)-phosphorylated (Homo sapiens, UniProt P00519, Q252H)
T1 construct: phosphorylated
Procedure, shortened: (§1)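 Binding was profiled in the KINOMEscan panel of over 400 human kinases, with each compound tested at a single concentration of 1 µM to map selectivity.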

[2] = biological target: T2, ABL1(T315I)-phosphorylated (Homo sapiens, UniProt P00519, T315I)
T2 construct: phosphorylated
Procedure, shortened: as §1

AKT1 = AKT1 (Homo sapiens, UniProt P31749)
AKT1, sequence (P31749 whole entry): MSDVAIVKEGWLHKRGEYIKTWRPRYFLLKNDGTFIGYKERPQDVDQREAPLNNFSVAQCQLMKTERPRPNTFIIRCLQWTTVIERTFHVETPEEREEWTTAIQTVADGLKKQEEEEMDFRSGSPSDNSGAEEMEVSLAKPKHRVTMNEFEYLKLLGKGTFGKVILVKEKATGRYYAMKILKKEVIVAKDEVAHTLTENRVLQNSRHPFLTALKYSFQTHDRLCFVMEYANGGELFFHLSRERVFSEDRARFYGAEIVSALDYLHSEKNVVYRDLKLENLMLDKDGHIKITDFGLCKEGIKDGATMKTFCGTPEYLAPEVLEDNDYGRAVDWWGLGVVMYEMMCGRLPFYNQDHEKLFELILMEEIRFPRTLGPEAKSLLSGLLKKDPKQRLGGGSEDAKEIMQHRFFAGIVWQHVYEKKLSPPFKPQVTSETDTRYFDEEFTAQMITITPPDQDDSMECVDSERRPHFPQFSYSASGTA
Procedure, shortened: as §1

ASK1 = biological target: T3, ASK1 (Homo sapiens, UniProt Q99683)
T3 construct: gene MAP3K5
Procedure, shortened: as §1

BMPR2 = BMPR2 (Homo sapiens, UniProt Q13873)
BMPR2, sequence (Q13873 whole entry): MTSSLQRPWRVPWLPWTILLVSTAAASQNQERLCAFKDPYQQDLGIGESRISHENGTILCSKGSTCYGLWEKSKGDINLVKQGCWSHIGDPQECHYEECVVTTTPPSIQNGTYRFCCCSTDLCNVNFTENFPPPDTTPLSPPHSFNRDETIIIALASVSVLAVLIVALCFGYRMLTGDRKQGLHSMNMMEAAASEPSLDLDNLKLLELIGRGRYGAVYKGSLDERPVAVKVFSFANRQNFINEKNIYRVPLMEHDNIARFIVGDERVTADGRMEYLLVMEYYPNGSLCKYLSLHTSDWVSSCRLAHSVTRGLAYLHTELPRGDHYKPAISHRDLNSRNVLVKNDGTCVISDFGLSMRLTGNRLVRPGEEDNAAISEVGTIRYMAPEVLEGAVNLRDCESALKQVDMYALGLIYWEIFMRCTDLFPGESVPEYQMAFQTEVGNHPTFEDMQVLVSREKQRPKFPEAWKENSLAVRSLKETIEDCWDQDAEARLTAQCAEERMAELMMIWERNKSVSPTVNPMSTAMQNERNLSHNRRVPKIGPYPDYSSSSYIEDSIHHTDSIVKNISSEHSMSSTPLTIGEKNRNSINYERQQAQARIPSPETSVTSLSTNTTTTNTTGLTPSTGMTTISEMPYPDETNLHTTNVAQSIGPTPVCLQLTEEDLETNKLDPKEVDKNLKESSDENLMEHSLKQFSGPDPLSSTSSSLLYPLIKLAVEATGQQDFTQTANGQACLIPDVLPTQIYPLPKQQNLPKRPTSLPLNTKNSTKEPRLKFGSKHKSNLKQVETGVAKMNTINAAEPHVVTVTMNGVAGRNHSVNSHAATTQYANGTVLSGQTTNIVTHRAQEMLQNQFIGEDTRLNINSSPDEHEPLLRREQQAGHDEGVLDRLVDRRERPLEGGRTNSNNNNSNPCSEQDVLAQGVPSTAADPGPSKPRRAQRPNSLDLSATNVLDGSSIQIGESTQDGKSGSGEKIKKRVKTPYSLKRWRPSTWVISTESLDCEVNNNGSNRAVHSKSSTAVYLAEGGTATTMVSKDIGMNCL
Procedure, shortened: as §1

BRAF(V600E) = BRAF(V600E) (Homo sapiens, UniProt P15056, V600E)
Procedure, shortened: as §1

CLK1 = CLK1 (Homo sapiens, UniProt P49759)
CLK1, sequence (P49759 whole entry): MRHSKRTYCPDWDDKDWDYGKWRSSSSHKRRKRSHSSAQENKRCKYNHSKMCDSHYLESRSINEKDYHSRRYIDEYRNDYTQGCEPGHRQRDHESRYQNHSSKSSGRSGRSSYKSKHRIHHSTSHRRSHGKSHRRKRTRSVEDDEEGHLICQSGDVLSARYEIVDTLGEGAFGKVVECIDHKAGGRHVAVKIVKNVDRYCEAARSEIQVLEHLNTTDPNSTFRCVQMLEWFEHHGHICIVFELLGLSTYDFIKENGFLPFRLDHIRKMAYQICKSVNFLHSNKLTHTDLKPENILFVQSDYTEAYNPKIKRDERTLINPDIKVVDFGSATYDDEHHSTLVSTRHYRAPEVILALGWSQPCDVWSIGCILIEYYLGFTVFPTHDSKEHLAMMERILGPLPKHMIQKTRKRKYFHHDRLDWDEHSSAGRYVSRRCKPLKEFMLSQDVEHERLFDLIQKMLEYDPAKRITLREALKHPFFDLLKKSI
Procedure, shortened: as §1

EGFR = EGFR (Homo sapiens, UniProt P00533)
Procedure, shortened: as §1

ERN1 = ERN1 (Homo sapiens, UniProt O75460)
Procedure, shortened: as §1

GRK1 = GRK1 (Homo sapiens, UniProt Q15835)
Procedure, shortened: as §1

JNK3 = biological target: T4, JNK3 (Homo sapiens, UniProt P53779)
T4 construct: gene MAPK10
Procedure, shortened: as §1

LCK = LCK (Homo sapiens, UniProt P06239)
LCK, sequence (P06239 whole entry): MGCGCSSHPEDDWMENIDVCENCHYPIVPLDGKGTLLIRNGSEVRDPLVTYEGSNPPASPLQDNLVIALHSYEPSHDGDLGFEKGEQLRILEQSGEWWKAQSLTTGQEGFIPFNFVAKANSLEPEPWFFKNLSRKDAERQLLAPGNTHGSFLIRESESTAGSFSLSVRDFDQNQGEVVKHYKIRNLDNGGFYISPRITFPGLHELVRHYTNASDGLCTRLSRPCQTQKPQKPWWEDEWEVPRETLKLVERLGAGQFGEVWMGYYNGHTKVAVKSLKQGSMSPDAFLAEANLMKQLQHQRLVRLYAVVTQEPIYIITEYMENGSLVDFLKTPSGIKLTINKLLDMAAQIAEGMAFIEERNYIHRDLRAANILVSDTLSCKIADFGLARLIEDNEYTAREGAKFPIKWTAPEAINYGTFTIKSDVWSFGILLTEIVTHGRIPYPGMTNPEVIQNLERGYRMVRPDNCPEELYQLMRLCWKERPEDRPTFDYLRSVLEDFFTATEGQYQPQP
Procedure, shortened: as §1

MAP4K2 = MAP4K2 (Homo sapiens, UniProt Q12851)
Procedure, shortened: as §1

MERTK = MERTK (Homo sapiens, UniProt Q12866)
Procedure, shortened: as §1

MET(M1250T) = MET(M1250T) (Homo sapiens, UniProt P08581, M1250T)
MET(M1250T), sequence (P08581 whole entry M1250T): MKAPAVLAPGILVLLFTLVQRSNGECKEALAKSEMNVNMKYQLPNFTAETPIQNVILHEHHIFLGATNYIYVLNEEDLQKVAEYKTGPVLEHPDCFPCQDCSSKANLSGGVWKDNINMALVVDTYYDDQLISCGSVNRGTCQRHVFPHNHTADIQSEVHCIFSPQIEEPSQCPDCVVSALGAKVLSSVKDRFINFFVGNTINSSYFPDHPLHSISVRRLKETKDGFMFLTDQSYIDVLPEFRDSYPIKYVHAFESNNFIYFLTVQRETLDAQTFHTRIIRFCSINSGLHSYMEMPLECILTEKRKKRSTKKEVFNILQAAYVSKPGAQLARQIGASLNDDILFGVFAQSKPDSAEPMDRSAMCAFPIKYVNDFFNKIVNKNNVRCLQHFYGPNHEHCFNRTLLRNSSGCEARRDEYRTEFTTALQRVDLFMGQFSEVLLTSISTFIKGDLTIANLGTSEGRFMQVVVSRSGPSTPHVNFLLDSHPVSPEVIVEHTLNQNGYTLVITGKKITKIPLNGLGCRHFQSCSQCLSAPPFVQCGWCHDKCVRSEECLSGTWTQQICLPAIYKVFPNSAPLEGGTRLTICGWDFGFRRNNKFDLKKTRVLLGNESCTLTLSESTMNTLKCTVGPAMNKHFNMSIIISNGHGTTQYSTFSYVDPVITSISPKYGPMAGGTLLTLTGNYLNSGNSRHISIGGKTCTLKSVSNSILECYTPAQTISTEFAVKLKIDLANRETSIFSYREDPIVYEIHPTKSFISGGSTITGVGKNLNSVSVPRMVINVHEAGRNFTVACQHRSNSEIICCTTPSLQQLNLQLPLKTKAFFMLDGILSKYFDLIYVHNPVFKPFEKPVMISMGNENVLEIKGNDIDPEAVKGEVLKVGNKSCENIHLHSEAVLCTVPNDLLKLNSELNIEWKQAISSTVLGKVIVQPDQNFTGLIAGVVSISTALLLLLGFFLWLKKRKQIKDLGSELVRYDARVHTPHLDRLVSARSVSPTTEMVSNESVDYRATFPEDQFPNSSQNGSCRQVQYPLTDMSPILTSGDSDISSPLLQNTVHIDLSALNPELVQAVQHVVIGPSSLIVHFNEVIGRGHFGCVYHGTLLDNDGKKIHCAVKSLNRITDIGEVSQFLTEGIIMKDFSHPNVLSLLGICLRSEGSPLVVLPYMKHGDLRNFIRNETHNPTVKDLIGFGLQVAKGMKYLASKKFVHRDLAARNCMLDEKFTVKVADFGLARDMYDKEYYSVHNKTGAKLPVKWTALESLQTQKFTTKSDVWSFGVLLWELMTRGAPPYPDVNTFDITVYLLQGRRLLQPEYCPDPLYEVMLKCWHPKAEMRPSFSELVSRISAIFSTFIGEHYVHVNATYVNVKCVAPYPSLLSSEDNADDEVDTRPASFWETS
Procedure, shortened: as §1

MTOR = MTOR (Homo sapiens, UniProt P42345)
Procedure, shortened: as §1

PIK3CA(C420R) = PIK3CA(C420R) (Homo sapiens, UniProt P42336, C420R)
PIK3CA(C420R), sequence (P42336 whole entry C420R): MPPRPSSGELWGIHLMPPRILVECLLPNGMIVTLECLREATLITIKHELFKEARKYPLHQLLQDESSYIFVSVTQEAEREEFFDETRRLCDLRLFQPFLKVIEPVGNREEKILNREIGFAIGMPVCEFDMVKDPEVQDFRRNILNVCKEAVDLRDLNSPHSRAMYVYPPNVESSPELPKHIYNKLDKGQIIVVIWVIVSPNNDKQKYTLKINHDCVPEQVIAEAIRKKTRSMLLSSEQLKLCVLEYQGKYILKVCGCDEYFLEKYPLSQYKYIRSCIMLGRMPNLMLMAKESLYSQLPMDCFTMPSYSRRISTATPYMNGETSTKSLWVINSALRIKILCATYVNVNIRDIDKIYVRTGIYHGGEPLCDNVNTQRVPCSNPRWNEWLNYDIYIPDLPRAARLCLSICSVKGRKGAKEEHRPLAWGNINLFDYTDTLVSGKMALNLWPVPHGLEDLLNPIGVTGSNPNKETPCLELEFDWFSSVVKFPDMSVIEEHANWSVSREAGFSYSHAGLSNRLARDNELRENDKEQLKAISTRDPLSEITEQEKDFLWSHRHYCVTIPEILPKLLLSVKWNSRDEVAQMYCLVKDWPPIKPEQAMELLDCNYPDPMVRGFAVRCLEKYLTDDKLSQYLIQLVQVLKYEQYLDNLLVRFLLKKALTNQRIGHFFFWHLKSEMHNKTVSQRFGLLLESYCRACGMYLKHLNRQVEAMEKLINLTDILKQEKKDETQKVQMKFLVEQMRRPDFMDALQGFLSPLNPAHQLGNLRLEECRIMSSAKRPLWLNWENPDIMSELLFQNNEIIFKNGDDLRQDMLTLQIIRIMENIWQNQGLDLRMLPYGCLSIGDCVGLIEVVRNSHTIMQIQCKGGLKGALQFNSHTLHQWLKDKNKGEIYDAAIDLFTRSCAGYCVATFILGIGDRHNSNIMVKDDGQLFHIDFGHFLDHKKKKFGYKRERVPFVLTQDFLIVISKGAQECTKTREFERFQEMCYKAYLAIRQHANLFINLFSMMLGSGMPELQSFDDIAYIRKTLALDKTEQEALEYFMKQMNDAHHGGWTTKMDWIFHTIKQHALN
Procedure, shortened: as §1

PIK3CA(Q546K) = PIK3CA(Q546K) (Homo sapiens, UniProt P42336, Q546K)
PIK3CA(Q546K), sequence (P42336 whole entry Q546K): as the sequence (P42336 whole entry C420R) above, with R420C, Q546K counted along it
Procedure, shortened: as §1

PIM1 = PIM1 (Homo sapiens, UniProt P11309)
Procedure, shortened: as §1

[3] = biological target: T5, RSK4(Kin.Dom.1-N-terminal) (Homo sapiens, UniProt Q9UK32)
T5 construct: gene RPS6KA6; Kin.Dom.1-N-terminal
Procedure, shortened: as §1

SGK = biological target: T6, SGK (Homo sapiens, UniProt O00141)
T6 construct: gene SGK1
Procedure, shortened: as §1

VEGFR2 = biological target: T7, VEGFR2 (Homo sapiens, UniProt P35968)
T7 construct: gene KDR
Procedure, shortened: as §1

VRK2 = VRK2 (Homo sapiens, UniProt Q86Y07)
Procedure, shortened: as §1

ZAP70 = ZAP70 (Homo sapiens, UniProt P43403)
Procedure, shortened: as §1

Compound `CNS(=O)(=O)c1ccc(N(C)C)c(Nc2ncnc3cc(OC)c(OC)cc23)c1` [compound 7, 3-((6,7-dimethoxyquinazolin-4-yl)amino)-4-(dimethylamino)-N-methylbenzenesulfonamide] has an inhibition at 1 µM [1] of 79%, an inhibition at 1 µM [2] of 0% and an inhibition at 1 µM (AKT1) of 0%. The inhibition at 1 µM (ASK1) was 0%, the inhibition at 1 µM (BMPR2) was 0% and the inhibition at 1 µM (BRAF(V600E)) was 83%. The inhibition at 1 µM (CLK1) was 8%, the inhibition at 1 µM (EGFR) was 0% and the inhibition at 1 µM (ERN1) was 0%. The inhibition at 1 µM (GRK1) was 0%, the inhibition at 1 µM (JNK3) was 0% and the inhibition at 1 µM (LCK) was 63%. It also gave an inhibition at 1 µM (MAP4K2) of 41%, an inhibition at 1 µM (MERTK) of 0% and an inhibition at 1 µM (MET(M1250T)) of 0%. For the same compound, the inhibition at 1 µM (MTOR) was 0%, the inhibition at 1 µM (PIK3CA(C420R)) was 5% and the inhibition at 1 µM (PIK3CA(Q546K)) was 36%. It also gave an inhibition at 1 µM (PIM1) of 0%, an inhibition at 1 µM [3] of 34% and an inhibition at 1 µM (SGK) of 1%. The inhibition at 1 µM (VEGFR2) was 26%, the inhibition at 1 µM (VRK2) was 29% and the inhibition at 1 µM (ZAP70) was 53%.
